Results: US20110015226A1, “Treatment of Energy Utilization Disease” (SUMMIT CORPORATION PLC, priority 2008, published 2011)
Like-named read-outs stand apart in the source and are kept apart here.

What was measured:
Format in all cases: biochemical
α-D-glucosidase (Rice) = target: T1, α-D-glucosidase (Rice) (Oryza sativa subsp. japonica, UniProt Q653V7); test: Glycosidase inhibition: α-D-glucosidase (Rice); settings: for inhibition at 800 µM: compounds tested at 0.8 mM
T1 construct: purchased Sigma
T1 sequence (Q653V7 34-885): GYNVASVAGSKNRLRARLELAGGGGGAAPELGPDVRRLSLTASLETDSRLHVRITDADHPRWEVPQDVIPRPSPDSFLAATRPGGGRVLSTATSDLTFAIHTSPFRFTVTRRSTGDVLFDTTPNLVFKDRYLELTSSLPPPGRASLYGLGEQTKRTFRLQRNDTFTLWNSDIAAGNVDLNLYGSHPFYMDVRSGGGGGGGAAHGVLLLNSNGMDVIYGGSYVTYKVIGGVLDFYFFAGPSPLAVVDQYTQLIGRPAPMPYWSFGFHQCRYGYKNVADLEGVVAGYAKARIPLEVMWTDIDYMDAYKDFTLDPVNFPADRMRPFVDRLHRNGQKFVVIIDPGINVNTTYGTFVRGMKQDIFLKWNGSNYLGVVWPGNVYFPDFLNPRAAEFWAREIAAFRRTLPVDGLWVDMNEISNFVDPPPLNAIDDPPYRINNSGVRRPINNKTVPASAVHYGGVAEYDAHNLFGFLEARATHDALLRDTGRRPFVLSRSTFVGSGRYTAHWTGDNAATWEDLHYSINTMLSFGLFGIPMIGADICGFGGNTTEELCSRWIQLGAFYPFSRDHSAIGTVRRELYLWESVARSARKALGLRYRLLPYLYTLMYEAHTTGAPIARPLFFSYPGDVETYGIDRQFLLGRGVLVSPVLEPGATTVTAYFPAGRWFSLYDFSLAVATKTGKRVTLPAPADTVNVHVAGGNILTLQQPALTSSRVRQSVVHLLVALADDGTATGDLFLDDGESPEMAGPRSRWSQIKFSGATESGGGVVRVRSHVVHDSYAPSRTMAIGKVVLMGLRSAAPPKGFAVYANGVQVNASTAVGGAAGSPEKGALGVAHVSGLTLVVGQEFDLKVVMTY

[1] = target: rabbit intestinal maltase; test: Rabbit disaccharidase inhibition assay: maltase; settings: NI: no inhibition at 0.8 mM
Procedure: (§1) Sucrose (8.3 mM), maltose (5 mM) and isomaltose (6.3 mM) substrates were made using 0.2 M Macllvaine (citrate-phosphate) buffer, pH 6.0. The glucose detection reagent was prepared according to the supplier's instructions (Megazyme Ltd). Linearity of the timecourse of the reaction between the glucose detection reagent and glucose was tested using a series of glucose dilutions.
(§2) The method for preparation of mammalian small intestine mucosal disaccharidases was based on Griffiths (1998), omitting ammonium sulphate fractionation steps. The small intestine was dissected out of a female wild rabbit, and opened longitudinally using a scalpel. The mucosal layer was scraped off using the edge of a clean microscope slide, and placed into 3 ml of dH2O. The mucosal layer suspension was centrifuged at around 1000 rpm for 30 seconds to sediment tissue debris. The supernatant ([…]) was removed, and centrifuged again at 3500 rcf for 1 minute to remove fine particulates from suspension. The supernatant was diluted to give 0.2-0.25 mg/ml protein and stored at −30° C.
(§3) Enzyme assays were carried out using 5-15 μl of enzyme preparation, 5 μl of test compound (or dH2O for controls) and 15-25 μl of substrate solution. Reactions were covered using a sheet of plate sealing film, and incubated at 37° C. for 60 minutes. Glucose (from disaccharide hydrolysis) was quantified by adding 200 μl of glucose detection reagent and incubating the reactions for a further twenty-five minutes. Absorbance was measured at 510 nm against control blanks.

[2] = test system: rabbit digestive disaccharidases; test: Rabbit digestive disaccharidases (summary statement); settings: at 0.8 mM
Procedure: as §1, §2, §3

[3] = target: T2, rabbit intestinal isomaltase (Oryctolagus cuniculus, UniProt P07768); test: Rabbit disaccharidase inhibition assay: isomaltase; settings: NI: no inhibition at 0.8 mM
T2 construct: The small intestine was dissected out of a female wild rabbit; from tissue; host or cells: small-intestinal mucosa of a female wild rabbit
T2 sequence (P07768 whole entry): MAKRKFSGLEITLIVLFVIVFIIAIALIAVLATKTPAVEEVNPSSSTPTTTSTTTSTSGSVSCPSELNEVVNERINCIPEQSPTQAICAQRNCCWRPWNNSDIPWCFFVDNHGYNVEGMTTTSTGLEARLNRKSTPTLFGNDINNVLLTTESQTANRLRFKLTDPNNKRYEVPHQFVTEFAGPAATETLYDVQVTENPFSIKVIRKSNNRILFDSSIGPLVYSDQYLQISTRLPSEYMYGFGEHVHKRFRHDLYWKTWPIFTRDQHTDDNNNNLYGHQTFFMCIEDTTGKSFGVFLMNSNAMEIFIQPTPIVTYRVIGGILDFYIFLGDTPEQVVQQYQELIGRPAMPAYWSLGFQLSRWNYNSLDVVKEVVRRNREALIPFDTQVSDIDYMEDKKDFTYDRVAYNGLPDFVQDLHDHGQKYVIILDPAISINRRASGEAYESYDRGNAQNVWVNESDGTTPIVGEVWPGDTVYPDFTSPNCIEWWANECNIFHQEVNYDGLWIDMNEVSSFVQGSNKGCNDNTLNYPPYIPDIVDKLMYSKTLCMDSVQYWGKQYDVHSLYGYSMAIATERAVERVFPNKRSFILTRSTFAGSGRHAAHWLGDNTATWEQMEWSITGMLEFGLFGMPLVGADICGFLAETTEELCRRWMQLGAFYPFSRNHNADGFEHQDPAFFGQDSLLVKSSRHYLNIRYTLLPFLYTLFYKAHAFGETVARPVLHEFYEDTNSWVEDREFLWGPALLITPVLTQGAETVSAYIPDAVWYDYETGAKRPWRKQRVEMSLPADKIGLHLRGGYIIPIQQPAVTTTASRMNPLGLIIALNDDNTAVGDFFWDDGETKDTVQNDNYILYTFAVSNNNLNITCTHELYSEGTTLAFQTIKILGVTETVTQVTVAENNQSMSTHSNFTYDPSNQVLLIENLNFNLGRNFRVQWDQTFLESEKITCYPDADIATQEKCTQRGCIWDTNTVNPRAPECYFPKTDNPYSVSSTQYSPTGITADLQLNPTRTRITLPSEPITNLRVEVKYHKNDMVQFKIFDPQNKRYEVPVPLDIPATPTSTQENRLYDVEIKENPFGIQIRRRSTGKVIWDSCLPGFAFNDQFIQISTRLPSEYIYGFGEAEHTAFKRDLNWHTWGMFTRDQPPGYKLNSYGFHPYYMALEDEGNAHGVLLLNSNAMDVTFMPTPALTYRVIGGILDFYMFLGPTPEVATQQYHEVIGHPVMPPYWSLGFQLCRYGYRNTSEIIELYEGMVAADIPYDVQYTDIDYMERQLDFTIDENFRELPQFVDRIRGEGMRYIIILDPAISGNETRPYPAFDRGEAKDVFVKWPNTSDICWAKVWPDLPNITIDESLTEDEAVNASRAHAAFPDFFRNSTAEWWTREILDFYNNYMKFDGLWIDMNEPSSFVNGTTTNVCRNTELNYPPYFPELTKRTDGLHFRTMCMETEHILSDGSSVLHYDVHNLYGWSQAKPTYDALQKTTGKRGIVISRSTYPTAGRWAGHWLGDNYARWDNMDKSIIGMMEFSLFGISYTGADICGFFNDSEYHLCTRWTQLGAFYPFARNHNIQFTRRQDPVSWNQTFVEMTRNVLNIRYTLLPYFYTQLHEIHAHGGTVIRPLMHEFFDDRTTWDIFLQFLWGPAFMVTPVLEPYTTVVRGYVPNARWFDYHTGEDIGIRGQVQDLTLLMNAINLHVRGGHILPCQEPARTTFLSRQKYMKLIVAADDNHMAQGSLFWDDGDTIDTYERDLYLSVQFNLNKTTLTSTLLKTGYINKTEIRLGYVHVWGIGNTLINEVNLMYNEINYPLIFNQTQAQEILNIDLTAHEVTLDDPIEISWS
Procedure: as §1, §2, §3

[4] = target: T3, Amyloglucosidase Aspergillus niger (Aspergillus niger, UniProt P69328); test: Glycosidase inhibition: Amyloglucosidase Aspergillus niger; settings: compounds tested at 0.8 mM
T3 construct: purchased Sigma
T3 sequence (P69328 25-640): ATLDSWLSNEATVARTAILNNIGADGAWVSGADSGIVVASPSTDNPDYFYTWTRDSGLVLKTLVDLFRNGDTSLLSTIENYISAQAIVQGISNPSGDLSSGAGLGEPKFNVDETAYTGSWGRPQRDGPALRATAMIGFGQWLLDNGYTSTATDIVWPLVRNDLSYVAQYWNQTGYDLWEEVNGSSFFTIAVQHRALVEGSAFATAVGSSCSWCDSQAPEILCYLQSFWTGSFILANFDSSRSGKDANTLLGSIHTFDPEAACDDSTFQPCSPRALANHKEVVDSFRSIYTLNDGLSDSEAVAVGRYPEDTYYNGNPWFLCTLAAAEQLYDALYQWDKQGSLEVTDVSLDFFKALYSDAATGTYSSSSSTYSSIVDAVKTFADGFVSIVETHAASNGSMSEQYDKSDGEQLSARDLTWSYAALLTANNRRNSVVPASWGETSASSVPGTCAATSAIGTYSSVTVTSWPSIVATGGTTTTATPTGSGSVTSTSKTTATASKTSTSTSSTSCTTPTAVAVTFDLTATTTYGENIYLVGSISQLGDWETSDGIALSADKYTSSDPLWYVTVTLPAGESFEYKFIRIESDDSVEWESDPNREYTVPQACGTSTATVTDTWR
Source text: (§4) The results tabulated below were obtained using commercially available glycosidases and p-nitrophenyl-substrates using standard methods described for example by Watson et al (1997) Phytochemistry 46 255-259. All enzymes and substrates were bought from Sigma. Enzyme and substrate solutions were made using sodium phosphate buffers at the pH optima values. The enzymes used were α-D-glucosidase Saccharomyces cerevisiae, Bacillus stearothermophilus, Oryzae sativa), β-D-glucosidase (Almond), α-D-mannosidase (Jack bean), α-D-galactosidase (Green coffee beans), β-D-galactosidase (Bovine liver), α-L-fucosidase (Bovine kidney), N-acetyl-β-D-glucosaminidase (Bovine kidney, Jack bean, Aspergillus oryzae), Naringinase (Penicillium decumbens) and amyloglucosidase (Aspergillus niger). All enzymes were used with the appropriate p-nitrophenyl substrates (5 mM). Amyloglucosidase activity was measured using amylopectin (0.1%) (Merck) mixed with sodium phosphate buffer, pH 4.5 in a glass bottle, and healed in a boiling water bath for 20 minutes to dissolve with released glucose measured using ‘Trinder’ glucose detection solution (Sigma).
(§5) All enzymes and para-nitrophenyl substrates were purchased from Sigma, with the exception of beta-mannosidase which came from Megazyme. Enzymes were assayed at 27° C. in 0.1M citric acid/0.2M disodium hydrogen phosphate buffers at the optimum pH for the enzyme. The incubation mixture consisted of 10 μl enzyme solution, 10 μl of 1 mg/ml aqueous solution of extract and 50 μl of the appropriate 5 mM para-nitrophenyl substrate made up in buffer at the optimum pH for the enzyme. The reactions were stopped by addition of 70 μl 0.4M glycine (pH 10.4) during the exponential phase of the reaction, which had been determined at the beginning using uninhibited assays in which water replaced inhibitor. Final absorbances were read at 405 nm using a Versamax microplate reader (Molecular Devices). Assays were carried out in triplicate, and the values given are means of the three replicates per assay. (See Watson, A. A., Nash, R. J., Wormald, M. R., Harvey, D. J., Dealler, S., Lees, E., Asano, N., Kizu, H., Kato, A., Griffiths, R. C., Cairns, A. J. and Fleet, G. W. J. (1997). Glycosidase-inhibiting pyrrolidine alkaloids from Hyacinthoides non-scripta. Phytochemistry 46 (2): 255-259.)

[5] = target: T4, α-D-mannosidase Jack bean (Canavalia ensiformis, UniProt C0HJB3); test: Glycosidase inhibition: α-D-mannosidase Jack bean; settings: compounds tested at 0.8 mM
T4 construct: α-D-mannosidase (Jack bean); purchased Sigma
T4 sequence (C0HJB3 1-981): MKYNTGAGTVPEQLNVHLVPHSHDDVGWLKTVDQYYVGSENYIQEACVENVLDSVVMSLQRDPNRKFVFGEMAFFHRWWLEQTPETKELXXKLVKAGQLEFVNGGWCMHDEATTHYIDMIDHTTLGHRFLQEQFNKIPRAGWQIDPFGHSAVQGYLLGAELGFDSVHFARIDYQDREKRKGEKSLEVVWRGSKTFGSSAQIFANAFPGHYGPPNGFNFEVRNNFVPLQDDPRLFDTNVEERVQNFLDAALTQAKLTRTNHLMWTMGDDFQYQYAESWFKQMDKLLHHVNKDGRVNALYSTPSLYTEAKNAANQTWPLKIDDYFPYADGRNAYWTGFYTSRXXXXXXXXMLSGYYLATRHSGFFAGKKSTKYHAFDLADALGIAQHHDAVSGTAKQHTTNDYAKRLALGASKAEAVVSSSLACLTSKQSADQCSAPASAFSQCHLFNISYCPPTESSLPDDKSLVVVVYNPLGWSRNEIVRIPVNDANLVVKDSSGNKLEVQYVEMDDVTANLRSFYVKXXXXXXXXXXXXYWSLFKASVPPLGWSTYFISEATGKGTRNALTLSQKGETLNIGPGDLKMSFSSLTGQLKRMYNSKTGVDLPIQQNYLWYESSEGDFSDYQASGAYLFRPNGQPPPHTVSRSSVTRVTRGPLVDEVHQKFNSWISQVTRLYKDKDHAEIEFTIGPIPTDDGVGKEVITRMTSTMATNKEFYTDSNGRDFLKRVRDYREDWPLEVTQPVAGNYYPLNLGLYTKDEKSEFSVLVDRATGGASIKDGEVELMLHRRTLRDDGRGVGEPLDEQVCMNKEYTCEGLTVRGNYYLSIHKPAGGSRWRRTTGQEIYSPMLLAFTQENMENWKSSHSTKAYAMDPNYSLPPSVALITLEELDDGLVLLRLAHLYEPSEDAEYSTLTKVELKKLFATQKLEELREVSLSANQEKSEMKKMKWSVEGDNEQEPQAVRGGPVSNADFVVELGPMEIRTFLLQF

[6] = target: α-D-glucosidase (Bacillus) (Geobacillus stearothermophilus, UniProt A0ACH1E9U3); test: Glycosidase inhibition: α-D-glucosidase (Bacillus); settings: compounds tested at 0.8 mM
α-D-glucosidase (Bacillus), sequence (A0ACH1E9U3 entry or part of it): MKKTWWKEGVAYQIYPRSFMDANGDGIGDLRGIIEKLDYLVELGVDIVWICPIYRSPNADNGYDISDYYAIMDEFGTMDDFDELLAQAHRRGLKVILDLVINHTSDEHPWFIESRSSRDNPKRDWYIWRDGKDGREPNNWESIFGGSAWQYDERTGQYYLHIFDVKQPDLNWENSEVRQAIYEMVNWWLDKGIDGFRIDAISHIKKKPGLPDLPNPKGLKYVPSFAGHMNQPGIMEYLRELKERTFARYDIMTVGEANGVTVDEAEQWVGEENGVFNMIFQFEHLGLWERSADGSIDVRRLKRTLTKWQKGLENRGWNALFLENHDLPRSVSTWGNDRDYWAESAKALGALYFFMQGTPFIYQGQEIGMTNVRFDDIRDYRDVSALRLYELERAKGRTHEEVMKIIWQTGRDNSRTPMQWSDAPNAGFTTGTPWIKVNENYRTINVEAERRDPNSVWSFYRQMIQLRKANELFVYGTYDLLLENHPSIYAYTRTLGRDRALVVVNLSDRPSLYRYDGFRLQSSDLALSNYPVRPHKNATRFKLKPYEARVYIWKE
Source text: as §4, §5

[7] = target: T5, α-D-galactosidase Green coffee bean (Coffea arabica, UniProt Q42656); test: Glycosidase inhibition: α-D-galactosidase Green coffee bean; settings: compounds tested at 0.8 mM
T5 construct: α-D-galactosidase (Green coffee beans); purchased Sigma; host or cells: green coffee beans
T5 sequence (Q42656 16-378): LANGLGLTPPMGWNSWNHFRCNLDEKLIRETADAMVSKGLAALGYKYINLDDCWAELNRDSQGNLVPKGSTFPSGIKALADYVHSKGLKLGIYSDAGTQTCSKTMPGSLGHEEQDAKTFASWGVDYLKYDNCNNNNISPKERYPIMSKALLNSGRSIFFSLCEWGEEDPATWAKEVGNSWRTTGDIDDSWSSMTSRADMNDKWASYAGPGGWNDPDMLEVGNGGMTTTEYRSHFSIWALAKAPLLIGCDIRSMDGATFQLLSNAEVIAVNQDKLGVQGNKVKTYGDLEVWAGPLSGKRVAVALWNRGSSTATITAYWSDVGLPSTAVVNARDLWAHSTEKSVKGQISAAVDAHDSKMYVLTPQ
Source text: as §4, §5

CCCCOC(=O)[C@@H]1[C@@H](O)[C@H](O)[C@@H](O)CN1CCCC [Compound T2, (2S,3R,4R,5S)-Butyl 1-butyl-3,4,5-trihydroxypiperidine-2-carboxylate]
inhibition at 800 µM (α-D-glucosidase (Rice)): < 50% | IC50 [1]: > 800000 nM | inhibition of the disaccharidases [2]: no inhibition | IC50 [3]: > 800000 nM | inhibition at 800 µM [4]: < 50% | inhibition at 800 µM [5]: < 50% | inhibition at 800 µM [6]: < 50% | inhibition at 800 µM [7]: < 50%

O=C(O)CCN1C[C@H](O)[C@@H](O)[C@H](O)[C@H]1CO [Compound T1]
inhibition at 800 µM (α-D-glucosidase (Rice)): 99.1% | IC50 (α-D-glucosidase (Rice); read-out: IC50, α-D-glucosidase (Rice)): 2400 nM | IC50 [1]: 19000 nM | maltase IC50 (uM) [1]: very weak inhibition | inhibition at 800 µM [4]: 53% | inhibition at 800 µM [5]: < 50% | inhibition at 800 µM [6]: < 50% | inhibition at 800 µM [7]: < 50%

O=C(O)CN1[C@H](CO)[C@@H](O)[C@H](O)[C@H]1CO [Compound S2, 2-((2R,3R,4R,5R)-3,4-Dihydroxy-2,5-bis(hydroxymethyl)pyrrolidin-1-yl)acetic acid]
inhibition at 800 µM (α-D-glucosidase (Rice)): < 50% | IC50 [1]: > 800000 nM | inhibition of the disaccharidases [2]: no inhibition | inhibition at 800 µM [4]: < 50% | inhibition at 800 µM [5]: < 50% | inhibition at 800 µM [6]: 92.7% | inhibition at 800 µM [7]: < 50%

OC[C@H]1NC[C@H](O)[C@@H](O)[C@@H]1O [DNJ, 1-deoxynojirimycin, reference compound]
IC50 (α-D-glucosidase (Rice)): 900 nM | IC50 [1]: 180 nM | IC50 [3]: 20 nM | inhibition at 800 µM [4]: 32% | % inhibition, α-D-mannosidase Jack bean [5]: 27% | inhibition at 800 µM [5]: 26% | inhibition at 800 µM [6]: 100% | inhibition at 800 µM [7]: < 10%

O=C(O)[C@H]1NC[C@H](O)[C@@H](O)[C@@H]1O [Compound G2, 2S,3R,4R,5S-trihydroxypiperidine-2-carboxylic acid]
inhibition at 800 µM (α-D-glucosidase (Rice)): 55% | IC50 [1]: > 800000 nM | inhibition of the disaccharidases [2]: no inhibition | IC50 [3]: > 800000 nM | inhibition at 800 µM [4]: < 10% | inhibition at 800 µM [5]: 29% | inhibition at 800 µM [6]: 49% | inhibition at 800 µM [7]: < 10%
